Common to all, as to test: NCI tumour cell line growth inhibition, 48 h
For assay [1], the system named is OVCAR-8 ovarian.
Assay [2] has as its system MALME-3M melanoma.
Assay [3] concerns OVCAR-3 ovarian.
In assay [4] the test system is DMS 114 small cell lung.
Assay [5] deals with DMS 273 small cell lung.
Assay [6] concerns HOP-18 NSCLC.
Assay [7] relates to XF 498 CNS.
Assay [8] deals with LXFL 529 NSCLC.
In assay [9] the test system is M19-MEL melanoma.
Assay [10] deals with KM20L2 colon.

Where “and” joins values, the source holds several entries; their conditions need not be identical. Equal values may be shown once.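 In this assay, cells in 96-well plates receive the compound at five concentrations for 48 hours. Endpoints are linearly interpolated between the surrounding concentrations. GI50: concentration for 50% inhibition of growth. TGI is the concentration that stops growth completely.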 Bounds are passed on as bounds.

As for `CCN1C(=O)CS/C1=N\NC(=O)CSc1nc2ccccc2c(=O)n1CC`, the TGI in [1], in assay [2] and in assay [3] was > 100 µM each time.
Turning to `O=C1c2c(ccc3c2CCCC3)CC1Cc1ccc2c(c1)CCCC2` (stereo unspecified), the TGI in assay [1], in assay [2] and in [3] was > 100 µM each time.
In the case of `CCCc1cc(-c2ccc(-c3cc(CCC)c(C=O)[nH]3)s2)[nH]c1C=O`, the TGI in [4] is 65 µM; in assay [5], > 100 µM; in assay [1], > 100 µM; in [6], > 100 µM; in [7], > 100 µM; in [8] it was > 100 µM. Besides, the TGI in assay [2], in [9] and in [3] was > 100 µM each time.
Regarding `COc1nc(C)nc2c1ncn2Cc1ccccc1`, the TGI in assay [1], in assay [2] and in assay [3] was > 100 µM in each case.
Regarding `CN(C)C(=O)Oc1ccc(C(=S)Nc2ccccc2)cc1Br`, the figures for the TGI in assay [1], in assay [2] and in assay [3] were 39.4 µM, > 100 µM and > 100 µM, respectively.
For `O=C1Nc2ccc(Br)cc2/C1=C/C(=O)c1ccccc1`, the TGI in assay [1] was 5.31 µM; in [2], 16.8 µM; in assay [3], 18.2 µM.
For `CCc1n[nH]c(=S)n1/N=C\c1ccc(-c2ccccc2[N+](=O)[O-])o1`, in that order: > 100 µM, > 100 µM and 46.8 µM.
For the molecule `CC(=O)O/N=C/c1cc2c(cc1Br)OCO2`, the TGI in [4], in assay [5], in assay [1], in assay [7], in assay [8] and in assay [10] was > 349 µM throughout. The TGI in assay [2], in [9] and in assay [3] was > 349 µM each time.
Consider `CCCN(CCC)C(=O)c1c(Cl)c2cccnc2n2c(C)cnc12`, for which the TGI in assay [1], in assay [2] and in assay [3] was > 100 µM in each case.
As for `CNc1ncnc2c1cnn2Cc1cn(CCCCO)nn1`, the TGI in assay [1], in [2] and in assay [3] was > 100 µM throughout.
Regarding `c1ccc(CSC(SCc2ccccc2)c2ccc3c(c2)OCO3)cc1`, the TGI in assay [1], in assay [2] and in assay [3] was > 10 µM each time.
With `O=C1c2ccccc2C(=O)c2c(O)c(NCCNCCO)cc(O)c21`, the TGI amounted to 16.1 µM in [4]; 12 µM in assay [5]; 12.6 µM in [1]; 18.8 µM in assay [6]; 19 µM in [7]; 18.1 µM in [8]. Also, the TGI in assay [10] stood at 16.1 µM; in assay [2], 26.5 µM; in [9], 15.2 µM; in [3], 15.1 µM.
In the case of `Cc1ccc([N+](=O)[O-])c2c(NCCC[N+](C)(C)[O-])ccnc12`, the TGI in assay [1], in assay [2] and in assay [3] was > 100 µM in each case.
As for `COC(=O)CCC1(O)C=CC(=O)C=C1`, the TGI in [1] is > 100 µM; in [2], 50 µM; in assay [3] it was 59.5 µM.
Consider `CC(C)c1cccc(C(C)C)c1NC(=O)C(=O)C1SC(=S)NC1=O` (stereo unspecified), for which the TGI in assay [5], in [1], in [6], in [7], in [8] and in assay [10] was > 100 µM throughout. The TGI in assay [2] and in assay [9] was > 100 µM each time.
For `CC(=O)Oc1cc(S(=O)(=O)Nc2n[nH]c(N)n2)c(S)cc1Cl`, the TGI in assay [1], in [2] and in assay [3] was > 100 µM each time.
With `C=C(CC)C[C@@H]1C[C@]2(C(=O)OC)c3[nH]c4ccccc4c3CCN2C1=O`, the TGI in assay [1] was > 100 µM; in assay [2], 72.5 µM; in assay [3] it was 27.9 µM.
Turning to `C(=N/NC1=NCCN1)/c1c2ccccc2c(/C=N\NC2=NCCN2)c2ccccc12`, the GI50 in assay [4] was 0.0491 µM and 0.0606 µM; in assay [5], 0.0504 µM; in assay [6] it was 0.282 µM; in assay [7], 0.0524 µM; in [10], 0.0553 µM; in [9], 0.0605 µM. For the same molecule, the TGI in assay [4] is 0.603 µM and 0.421 µM; in assay [1], 1.32 µM and 2.98 µM and 3.42 µM; in assay [6], 0.888 µM and 1.5 µM; in [7] it was 0.372 µM and 0.298 µM; in assay [10], 2.16 µM and 1.22 µM; in assay [2], 0.259 µM and 0.564 µM and 0.477 µM. Further, the TGI in assay [9] is 0.355 µM and 0.258 µM; in assay [3] it was 0.561 µM and 0.449 µM and 1.75 µM.
On to `COc1ccc(/C=C(\Cl)c2ccc(OC)cc2)cc1`, for which the TGI in [4], in assay [5], in assay [1], in [8], in assay [10] and in assay [2] was > 100 µM throughout. Besides, the TGI in [9] and in [3] was > 100 µM throughout.
As for `Cc1nc2nn(C)cc2c(=O)n1/N=C/c1ccccc1`, the TGI in [4], in assay [5], in assay [1], in assay [6], in assay [7] and in [10] was > 100 µM each time. Besides, the TGI in assay [2], in assay [9] and in assay [3] was > 100 µM throughout.

The values are drawn from PubChem BioAssay (NCI).
